Experimental data as given in patent publication US6413976B1, “Compositions and method for decreasing neuropathic pain” (Trustees of Dartmouth College, priority 1999, dated 2002).

Legend:
[1] = tested on: spinal nerve transection in the rat; test: Spinal nerve transection model of chronic neuropathic pain, mechanical allodynia (von Frey filaments); format: in vivo; conditions: for mechanical allodynia: L5 spinal nerve transection, dose-dependent
Experimental: Experiments were performed using a well-established animal model for chronic pain, spinal nerve transection in the rat. The model measures changes in mechanical allodynia, or an increased sensitivity following non-noxious stimulus, such as touch. Rats were injected intraperitdneally one day before and then daily for ten days following nerve transection. […] The effect was dose-dependent, with larger reductions seen with higher doses of the drug.
The same model. was used with rats injected intrathecally with either saline or propentofylline (1 or 3 μg), daily for 10 days. […] The responses were also dose-dependent with the largest reduction seen at the highest dose tested.
Surgery was performed under inhalation anesthesia using halothane in 100% oxygen at 4% and maintained at 2%. Each rat received a single unilateral lesion directed at a left L5 spinal root or spinal nerve. The nerve was identified, freed from adjacent nerves and transected. For sham lesions, a minilaminectomy was performed of the L5 vertebral segment without lesioning. Animals were allowed to recover from anesthesia and were not subjected to any additional surgical procedures or anesthesia until the end of the study when they were euthanized.
Propentofylline was injected intraperitoneally at doses of 1 and 10 mg/kg the day before and for each day of testing (10 days). Saline injections served as a control. Other rats were injected intrathecally at doses of 1 and 3 μg on each day of testing.
Mechanical hypersensitivity was measured as the frequency of foot withdrawals elicited by a defined mechanical stimulus. […]
In blinded testing, rats were subjected to sequential series of 10 tactile stimulations to the plantar surface of the ipsilateral hindpaw using 2 and 12 gauge von Frey filaments (Stoelting Co., WoodDale, Ill.) sequentially. […] Mechanical sensitivity was assessed by recording the total number of responses elicited during three successive trials separated by at least 10 minutes.

[2] = tested on: humans with neurodegenerative disease; conditions: Alzheimer's Disease and vascular dementia; cited from earlier work
[3] = oral dosing; cited from earlier work

For `CCCn1cnc2c1c(=O)n(CCCCC(C)=O)c(=O)n2C` [propentofylline, Propentofylline], the mechanical allodynia ([1]; intraperitoneal 1 and 10 mg/kg, one day before and daily for ten days) was “significant decrease in mechanical allodynia”, the mechanical allodynia ([1]; intrathecal 1 or 3 μg daily for 10 days vs saline) was “significant decrease in mechanical allodynia” and the “responses to stimulation (foot withdrawals to von Frey filaments)” value ([1]; increasing doses, both central and peripheral routes) was “dose-dependent decreases in responses to stimulation”. For the same compound, the “safety and efficacy in clinical trials” value [2] was “both safe and effective” and the absorption and metabolism [3] was “well absorbed and extensively metabolized”.
